This note sets out measurements from patent publication US20260028353.

For data set [1] the following is noted: 2 steps.

Read-outs that look alike come from different tables or passages of the source.

As for “(9S,15S,18S)-25-benzyl-2-ethyl-18-isopropyl-3-(2-((S)-1-methoxyethyl)pyridin-3-yl)-5,5,19-trimethyl-2,4,5,6,9,10,11,12,15,16,18,19,22,23,24,25-hexadecahydro-8H-9,13-epimino-1,31-etheno-15,28-methano-26,30-(metheno)pyrrolo[3,4-a1][1]oxa[7,10,13,19]tetraazacyclohentriacontine-8,14,17,20(21H)-tetraone”, for the setting “amide bond, 15-membered ring, 2 steps”, the ring closure, isolated yield was 95%.
For the compound “(9S,15S,18S,20aS,21aS,E)-2-ethyl-18-isopropyl-3-(2-((S)-1-methoxyethyl)pyridin-3-yl)-5,5,19-trimethyl-2,4,5,6,9,10,11,12,15,16,18,19,21,21a-tetradecahydro-8H-9,13-epimino-1,29-etheno-15,26-methano-24,28-(metheno)cyclopropa[o]pyrrolo[3,4-z][1]oxa[7,10,13]triazacyclotriacontine-8,14,17,20(20aH)-tetraone”, the ring closure, isolated yield (rcm bond, 14-membered ring, Grubbs II (0.5 eq), DCM, 12.0 mM, 40.0 °C) is 11%.
The compound “(9S,15S,18R,22S)-2-ethyl-18-isopropyl-3-(2-((S)-1-methoxyethyl)-5-(4-methylpiperazin-1-y)pyridin-3-yl)-5,5-dimethyl-22-phenyl-2,4,5,6,9,10,11,12,15,16,18,19,22,23-tetradecahydro-8H,21H-9,13-epimino-1,29-etheno-15,26-methano-24,28-(metheno)pyrrolo[3,4-l][1,17]dioxa[4,23,26]triazacyclononacosine-8,14,17-trione” returned a ring closure, isolated yield (amide bond, 13-membered ring, 2 steps) of 6.4%.
In the case of `COC(=O)[C@@H]1CCCN(C(=O)[C@@H]2Cc3cc(Br)cc(c3)CN(c3ccccc3)CCO[C@@H](C(C)C)C(=O)N2)N1`, where the note is “from COC(=O)[C@@H]1CCCN(C(=O)[C@@H](N)Cc2cc(Br)cc(CN(CCO[C@H](C(=O)O)C(C)C)c3ccccc3)c2)N1, amide bond, 13-membered ring, EDCI/HOBt/DIEA, DCM, 107.0 mM, 25.0 °C, 2 steps”, the ring closure, isolated yield was determined as 34%.
In the case of `COC(=O)[C@@H]1Cc2cc(cc(Cl)n2)C=CCOC[C@@H](C(C)C)C(=O)N1`, where the note is “from C=CCOC[C@H](C(=O)N[C@@H](Cc1cc(C=C)cc(Br)n1)C(=O)OC)C(C)C, rcm bond, 13-membered ring, Grubbs II (0.1 eq), DCM, 2.28 mM, 40.0 °C”, the ring closure, isolated yield was 81%.
Turning to “(9S,15S,18S,20aS,21aR)-2-ethyl-18-isopropyl-3-(2-((S)-1-methoxyethyl)pyridin-3-yl)-5,5,19-trimethyl-2,4,5,6,9,10,11,12,15,16,18,19,21,21a,22,23-hexadecahydro-8H-9,13-epimino-1,29-etheno-15,26-methano-24,28-(metheno)cyclopropa[o]pyrrolo[3,4-z][1]oxa[7,10,13,18]tetraazacyclotriacontine-8,14,17,20(20aH)-tetraone”, the ring closure, yield after HPLC in data set [1] (amide bond, 14-membered ring) is 1.5%.
Where the note is “other bond, 13-membered ring, 2 steps”, “(9S,15S,18R)-3-(5-(4-cyclopropylpiperazin-1-yl)-2-((S)-1-methoxyethyl)pyridin-3-yl)-2-ethyl-18-isopropyl-5,5-dimethyl-21-phenyl-2,4,5,6,9,10,11,12,15,16,19,22-dodecahydro-8H,14H-9,13-epimino-1,29-etheno-15,26-methano-24,28-(metheno)pyrrolo[3,4-u][1,17]dioxa[4,8,11]triazacyclononacosine-8,14,17(18H)-trione” came in with a ring closure, isolated yield of 62%.
Take “(9S,15S,18S)-3-(5-(4-cyclopropylpiperazin-1-yl)-2-((S)-1-methoxyethyl)pyridin-3-yl)-2-ethyl-18-isopropyl-5,5-dimethyl-22-phenyl-2,4,5,6,9,10,11,12,15,16,20,21,22,23-tetradecahydro-8H,14H-9,13-epimino-1,29-etheno-15,26-methano-24,28-(metheno)pyrrolo[3,4-q][1,13]dioxa[4,7,27]triazacyclononacosine-8,14,17(18H)-trione”: in data set [1] (ester bond, 18-membered ring), the ring closure, yield after HPLC stood at 23%.
For the compound “tert-butyl 4-((9S,15S,18S,21 S)-3-(5-(4-cyclopropylpiperazin-1-yl)-2-((S)-1-methoxyethyl)pyridin-3-yl)-2-ethyl-18-isopropyl-5,5-dimethyl-8,14,17-trioxo-2,4,5,6,9,10,11,12,15,16,17,18,21,22-tetradecahydro-8H,14H,20H-9,13-epimino-1,29-etheno-15,26-methano-24,28-(metheno)pyrrolo[3,4-q][1,13,26]trioxa[4,7]diazacyclononacosin-21-yl)piperazine-1-carboxylate”, for the setting “ether bond, 13-membered ring”, the ring closure, isolated yield is 40%.
“(9S,15S,18S,Z)-2-ethyl-18-isopropyl-3-(2-((S)-1-methoxyethyl)pyridin-3-yl)-5,5,19-trimethyl-2,4,5,6,9,10,11,12,15,16,18,19,23,24-tetradecahydro-8H,14H-9,13-epimino-1,30-etheno-15,27-methano-25,29-(metheno)pyrrolo[3,4-z][1]oxa[7,10,13,18]tetraazacyclotriacontine-8,14,17,20-tetraone” gave a ring closure, isolated yield (rcm bond, 14-membered ring, Grubbs II, DCM, 7.1 mM, 40.0 °C) of 16%.
`COC(=O)[C@@H]1CCCN(C(=O)[C@H]2NC(=O)[C@H](C(C)C)N3CCC[C@@H]3COc3ccccc3CN(C)[C@@H]2c2nc(Br)cs2)N1`: the ring closure, isolated yield (from COC(=O)[C@@H]1CCCN(C(=O)[C@@H](N)[C@@H](c2nc(Br)cs2)N(C)Cc2ccccc2OC[C@H]2CCCN2[C@H](C(=O)O)C(C)C)N1, amide bond, 13-membered ring, HATU/DIEA, DMF, 12.4 mM, 20.0 °C, 2 steps) is 55%.
Compound “tert-butyl ((9S,15S,18S,22R)-2-ethyl-18-isopropyl-3-(2-((S)-1-methoxyethyl)pyridin-3-yl)-5,5,19-trimethyl-8,14,17,20-tetraoxo-2,4,5,6,9,10,11,12,15,16,17,18,19,20,21,22,23,24-octadecahydro-8H,14H-9,13-epimino-1,31-etheno-15,28-methano-26,30-(metheno)pyrrolo[3,4-a1][1,19]dioxa[7,10,13]triazacyclohentriacontin-22-yl)carbamate” yielded a ring closure, isolated yield (amide bond, 15-membered ring, 3 steps) of 27%.
On to `CCOC(=O)[C@@H]1Cc2nc(Br)sc2CCCC(=O)N(C)[C@@H](C(C)C)C(=O)N1`, for which, under “from CCOC(=O)[C@@H](N)Cc1nc(Br)sc1CCCC(=O)N(C)[C@H](C(=O)O)C(C)C, amide bond, 12-membered ring, HATU/DIEA, DMF, 209.0 mM, 0.0 °C, 3 steps”, the ring closure, isolated yield is 28%.
In turn, “(9S,15S,18R,21R)-3-(5-(4-cyclopropylpiperazin-1-yl)-2-((S)-1-methoxyethyl)pyridin-3-yl)-21-(2,6-dichloropyridin-4-yl)-2-ethyl-18-isopropyl-5,5-dimethyl-2,4,5,6,9,10,11,12,15,16,18,19,22,23-tetradecahydro-8H,21H-9,13-epimino-1,29-etheno-15,26-methano-24,28-(metheno)pyrrolo[3,4-l][1,17]dioxa[4,23,26]triazacyclononacosine-8,14,17-trione” returned a ring closure, isolated yield (amide bond, 13-membered ring, EDCI/HOBt/DIEA, DCM, 2 steps) of 66%.
